According to patent publication US8716440B2, “Method of liberating and recovering peptide” (Sysmex Corporation, priority 2011, dated 2014):
pKd: −log10 of the molar value. Residues, ends and D or L forms follow the SMILES beside them.

How the values were obtained:
[1] = biological target: T1, human serum albumin (HSA) (Homo sapiens, UniProt P02768); test: Fluorescence titration method, Kd between HSA and peptide; assay type: binding; details: solution in ultrapure water: ACTH partial peptide 34 μM, TMR-ACTH partial peptide 6 μM, HSA 600 μM
T1 construct: purchased Sigma-Aldrich Japan Inc
Source text: The ACTH is a basic peptide. The used albumin was human serum albumin (HSA, Sigma-Aldrich Japan Inc.).

[2] = biological target: T2, bovine serum albumin (BSA) (Bos taurus, UniProt P02769); test: Fluorescence titration method, Kd between BSA and peptide; assay type: binding
T2 construct: purchased Sigma-Aldrich Japan Inc
Source text: FITC-SA21 (Biologica Co, Ltd.) in which SA21 consisting of 18 amino acids was labeled with fluorescein isothiocyanate (FITC) (a green fluorescent dye) was used as a peptide. The SA21 is an acidic peptide. The used albumin was BSA (Sigma-Aldrich Japan Inc.).

T2 sequence (P02769 25-607): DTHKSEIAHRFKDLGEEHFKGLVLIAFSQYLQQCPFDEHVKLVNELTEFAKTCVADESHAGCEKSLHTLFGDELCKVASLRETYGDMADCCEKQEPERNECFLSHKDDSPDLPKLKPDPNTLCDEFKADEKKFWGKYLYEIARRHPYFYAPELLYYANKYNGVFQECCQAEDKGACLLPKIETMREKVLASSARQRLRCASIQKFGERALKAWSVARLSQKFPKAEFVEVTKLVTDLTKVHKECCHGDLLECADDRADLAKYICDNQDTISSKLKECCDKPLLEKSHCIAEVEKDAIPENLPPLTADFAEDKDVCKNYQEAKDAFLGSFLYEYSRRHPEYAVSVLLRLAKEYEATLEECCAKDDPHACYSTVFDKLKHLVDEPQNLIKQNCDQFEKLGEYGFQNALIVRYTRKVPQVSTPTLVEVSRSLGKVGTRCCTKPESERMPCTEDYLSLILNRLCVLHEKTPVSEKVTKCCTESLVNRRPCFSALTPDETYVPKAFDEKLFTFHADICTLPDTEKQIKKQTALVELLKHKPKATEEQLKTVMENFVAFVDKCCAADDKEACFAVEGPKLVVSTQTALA
T1 sequence (P02768 25-609): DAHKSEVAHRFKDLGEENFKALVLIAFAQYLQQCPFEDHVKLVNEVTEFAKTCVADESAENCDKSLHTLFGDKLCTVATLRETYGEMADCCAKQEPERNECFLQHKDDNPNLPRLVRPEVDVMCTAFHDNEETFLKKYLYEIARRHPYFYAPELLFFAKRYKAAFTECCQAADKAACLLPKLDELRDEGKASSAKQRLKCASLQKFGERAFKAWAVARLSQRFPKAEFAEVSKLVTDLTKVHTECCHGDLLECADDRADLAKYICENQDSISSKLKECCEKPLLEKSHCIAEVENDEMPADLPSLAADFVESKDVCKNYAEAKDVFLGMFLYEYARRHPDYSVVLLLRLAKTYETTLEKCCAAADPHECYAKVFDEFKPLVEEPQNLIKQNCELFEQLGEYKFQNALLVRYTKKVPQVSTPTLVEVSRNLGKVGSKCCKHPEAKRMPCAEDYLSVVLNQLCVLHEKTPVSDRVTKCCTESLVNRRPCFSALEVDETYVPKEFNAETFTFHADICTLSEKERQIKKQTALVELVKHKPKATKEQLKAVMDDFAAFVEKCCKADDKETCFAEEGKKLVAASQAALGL

SMILES	fraction of peptide forming a complex with the HSA [1]	pKd ([2]; fluorescence titration, read-out: Kd value between the BSA and FITC-SA21)	fraction of FITC-SA21 forming a complex with albumin ([2]; solution in ultrapure water: FITC-SA21 43 (M, BSA 100 (M)), printed as complex with the HSA)	affinity of binding to BSA relative to affinity of binding between the HSA and ACTH partial peptide ([2]; times stronger than HSA/ACTH partial peptide binding)
CSCC[C@H](NC(=O)[C@H](CO)NC(=O)[C@H](Cc1ccc(O)cc1)NC(=O)[C@H](CO)NC(=O)c1ccc2c(c1)C(=O)OC21c2ccc(N(C)C)cc2Oc2cc(N(C)C)ccc21)C(=O)N[C@@H](CCC(=O)O)C(=O)N[C@@H](Cc1c[nH]cn1)C(=O)N[C@@H](Cc1ccccc1)C(=O)N[C@@H](CCCNC(=N)N)C(=O)N[C@@H](Cc1c[nH]c2ccccc12)C(=O)NCC(=O)N[C@@H](CCCCN)C(=O)N1CCC[C@H]1C(=O)N[C@H](C(=O)NCC(=O)N[C@@H](CCCCN)C(=O)N[C@@H](CCCCN)C(=O)N[C@@H](CCCNC(=N)N)C(=O)N[C@@H](CCCNC(=N)N)C(=O)N1CCC[C@H]1C(=O)N[C@H](C(=O)N[C@@H](CCCCN)C(=O)N[C@H](C(=O)N[C@@H](Cc1ccc(O)cc1)C(=O)N1CCC[C@H]1C(=O)O)C(C)C)C(C)C)C(C)C [TMR-ACTH partial peptide]	98.9%	–	–	–
CC[C@H](C)[C@H](NC(=O)[C@H](CC(C)C)NC(=O)[C@H](CCCNC(=N)N)NC(=S)Nc1ccc2c(c1)C(=O)OC21c2ccc(O)cc2Oc2cc(O)ccc21)C(=O)N[C@@H](CCC(=O)O)C(=O)N[C@@H](CC(=O)O)C(=O)N[C@H](C(=O)N[C@H]1CSSC[C@@H](C(=O)N[C@@H](CC(C)C)C(=O)N[C@@H](Cc2c[nH]c3ccccc23)C(=O)N[C@@H](CCC(=O)O)C(=O)N[C@@H](CC(=O)O)C(=O)N[C@@H](CC(=O)O)C(N)=O)NC(=O)CNC(=O)[C@H](Cc2c[nH]c3ccccc23)NC(=O)[C@H](CCCNC(=N)N)NC(=O)[C@@H]2CCCN2C(=O)[C@H](CC(C)C)NC1=O)[C@@H](C)CC [FITC-SA21] (HELM PEPTIDE1{[O=C1OC2(c3ccc(O)cc3Oc3cc(O)ccc32)c2ccc(NC(=S)[*:2])cc21].R.L.I.E.D.I.C.L.P.R.W.G.C.L.W.E.D.D.[am]}$PEPTIDE1,PEPTIDE1,8:R3-14:R3$$$V2.0; N-terminus and C-terminus assumed)	–	≥ 6.00	98.3%	6 times
